In US20250388623A1, “PEPTIDE INHIBITOR AND USE THEREOF” (CHENGDU BRILLIANT INSPIRATION BIOTHERAPEUTICS CO., LTD, priority 2022, published 2025):
Bridge positions count the residues as written; N and C are the ends. Peptide text beside a SMILES is read from it.

Legend:
[1] = system: TSP-1-dependent TGF-β activation; test: TSP-1-dependent TGF-β activation in PMA-differentiated THP-1 cells with 293-TGFβ Res reporter cells; format: cell-based; details: 100 μM polypeptide, 24 h; ratio to negative control group (1.00)
Protocol: In this Example, the inhibitory effects of the polypeptides on TSP-1-dependent TGF-β activation were detected using a model based on a high TSP-1 expressing cell. In the assay, THP-1 cells (American Typical Culture Collection, ATCC, TIB-20) were induced by phorbol ester (Phorbol 12-myristate 13-acetate, PMA) (Sigma, Catalog No. P1585) and differentiated into macrophage-like cells with distinct macrophage expression profiles.
The experiment was performed as follows: THP-1 cells were inoculated in a 96-well plate, and treated with 300 nM PMA for differentiation and adherence to form macrophage-like cells. 100 μM polypeptide was added (For the negative control group, an equal volume of PBS (the solvent for the polypeptide) was added, while the positive control group received an equal concentration of the polypeptide shown in SEQ ID NO: 50.) The cells were treated for 24 hours, and then a 293 reporter cell strain, 293-TGFβ Res cell strain (novoprotein, Catalog No. XCC03-1), was added for detecting TGF-β activity, and co-cultivated for 24 hours. Bio-Lite Luciferase Assay lysate comprising fluorescent substrate (Vazyme, Catalog No. DD1201-01) was added, and the fluorescent intensity was detected using a multifunctional microplate reader (TECAN, model Infinite 200 Pro). The inhibitory effect of the polypeptide on TGF-β activation was assessed by calculating the ratio of the fluorescence signal from the polypeptide-treated groups to that of the negative control group.

[2] = system: active TGF-β; test: Active TGF-β level in lung tissue, bleomycin (BLM) mouse lung fibrosis model; format: in vivo; details: single intratracheal dose 3 mg/kg on Day 7, lung 24 h later, BLM model group = 100.00
Outline: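 Male C57/6J mice (6–8 wk) received intratracheal bleomycin 0.7 USP/kg on Day 1, then a single intratracheal peptide dose of 3 mg/kg on Day 7, with saline for the model group. The value is the ratio of peptide group to model group.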

[3] = system: human hepatic stellate cells (LX-2); test: ECM-related gene expression (RT-qPCR) in TGF-β1-stimulated LX-2 cells, liver fibrosis cell model; format: cell-based; details: 20 ng/mL TGF-β1 24 h, then 100 μM polypeptide 48 h; for COL I gene expression Mean: blank control 1.00, model group 6.62; for FN gene expression Mean: blank control 1.00, model group 11.38
From the text: This Example was to evaluate the inhibitory effect of polypeptides on the expression of extracellular matrix (ECM)-related genes in a cellular model of liver fibrosis. The experiment utilized human hepatic stellate cells (LX-2), which are the primary source of myofibroblasts in the liver. Upon activation, hepatic stellate cells transform into myofibroblasts, which secrete ECM in live and play a direct role in the development of hepatic fibrosis. Transient stimulation of LX-2 cells with TGF-β1 can initiate a positive feedback regulation of TSP-1-TGF-β1 activation, which continuously enhances myofibroblast characteristics, including ECM production.
This experiment was performed as follows. LX-2 cells (Procell, CL-0560) were stimulated by 20 ng/mL TGF-β1 (Genscript, Catalog No.Z03411) for 24 h, then added 100 μM polypeptide and cultured for 48 h. An equal volume of solvent was added to the model group, and LX-2 cells without any treatment were used as a blank control. After that, LX-2 cells were collected and total RNA was extracted for RT-qPCR to detect the expression of ECM-related genes, EDA-Fibronectin (fibronectin, FN) and Collagen I (COL1). The polypeptides were able to reduce the expressions of FN and COL1 genes in LX-2 and inhibit ECM production.

Compound | Mean (relative fluorescence intensity) [1] | active TGF-β content in lung tissue, ratio to model group, Mean(%) ([2]; 3 mg/kg) | active TGF-β content in lung tissue, ratio to model group, Mean(%) [2] [%] | COL I gene expression Mean [3] | FN gene expression Mean [3]
C[C@@H]1NC(=O)[C@H](CC(=O)O)NC(=O)[C@H](CCC(N)=O)NC(=O)[C@H]([C@@H](C)O)NC(=O)[C@H](CC(N)=O)NC(=O)[C@H](CC(=O)O)NC(=O)[C@H](CCC(=O)O)NC1=O [SEQ ID NO: 40, cyclo[Thr-Gln-Asp-Ala-Glu-Asp-Asn]] (cyclo(AEDNTQD)) | 0.77 | 68.27 | – | – | –
CC(=O)N[C@H](C(=O)N[C@H]1CSSC[C@@H](C(=O)O)NC(=O)[C@H](CC(N)=O)NC(=O)[C@H](CC(=O)O)NC(=O)[C@H](CCC(=O)O)NC(=O)[C@H](C)NC(=O)[C@H](CC(=O)O)NC1=O)[C@@H](C)O [SEQ ID NO: 43, Ac-Thr-cyclo[Cys-Asp-Ala-Glu-Asp-Asn-Cys]] (Ac-TCDAEDNC-OH; disulfide 2-8) | 0.65 | – | 75.92 | 4.63 | 5.80
CC(=O)N[C@H](C(=O)N[C@H]1CSSC[C@@H](C(N)=O)NC(=O)[C@H](CC(N)=O)NC(=O)[C@H](CC(=O)O)NC(=O)[C@H](CCC(=O)O)NC(=O)[C@H](C)NC(=O)[C@H](CC(=O)O)NC1=O)[C@@H](C)O [SEQ ID NO: 44, Ac-Thr-cyclo[Cys-Asp-Ala-Glu-Asp-Asn-Cys]-NH2] (Ac-TCDAEDNC-NH2; disulfide 2-8) | 0.43 | – | 81.73 | – | –
C[C@@H]1NC(=O)[C@H]([C@@H](C)O)NC(=O)[C@H](CC(N)=O)NC(=O)[C@H](CC(=O)O)NC(=O)[C@H](CCC(=O)O)NC(=O)[C@@H]2CCCN2C(=O)[C@H](CC(=O)O)NC(=O)[C@H](CCC(N)=O)NC(=O)[C@H]([C@@H](C)O)NC(=O)[C@H](CO)NC1=O [SEQ ID NO: 46, cyclo[Thr-Gln-Asp-Pro-Glu-Asp-Asn-Thr-Ala-Ser]] (cyclo(ASTQDPEDNT)) | 0.69 | – | 79.36 | – | –
Ac-TQDAEDN-NH2 [SEQ ID NO: 06, Ac-Thr-Gln-Asp-Ala-Glu-Asp-Asn-NH2] | 0.65 | – | 76.76 | 4.57 | 5.72
Ac-TQDAEDNTASH-NH2 [SEQ ID NO: 33, Ac-Thr-Gln-Asp-Ala-Glu-Asp-Asn-Thr-Ala-Ser-His-NH2] | 0.67 | – | 86.61 | 4.49 | 6.80
Ac-TQDAEDPTA-NH2 [SEQ ID NO: 22, Ac-Thr-Gln-Asp-Ala-Glu-Asp-Pro-Thr-Ala-NH2] | 0.74 | – | 82.72 | 4.63 | 6.62
Ac-TQDAEDPTAS-NH2 [SEQ ID NO: 25, Ac-Thr-Gln-Asp-Ala-Glu-Asp-Pro-Thr-Ala-Ser-NH2] | 0.73 | – | 86.63 | 4.00 | 6.47
Ac-TQDPEDNTAS-NH2 [SEQ ID NO: 26, Ac-Thr-Gln-Asp-Pro-Glu-Asp-Asn-Thr-Ala-Ser-NH2] | 0.68 | – | 83.44 | 4.30 | 5.79
